US10143716B2, “Pawpaw and/or peach derived composition” (PHOENIX EAGLE COMPANY PTY LTD, priority 2002, dated 2018)
Entries after “also recorded” stand apart in the source; their conditions may differ.

System: PMR or poly-myalga-rheumatica
Test: Example 19B: patient with PMR (poly-myalga-rheumatica), pain relief
Assay type: in vivo, human
Conditions: for pain relief: PMR pain in neck, shoulders, hands, knees and ankles

SMILES | pain relief | side-effects (human, in vivo)
Cc1ccc(-c2cc(C(F)(F)F)nn2-c2ccc(S(N)(=O)=O)cc2)cc1 [CELEBREX] | proved to be effective; also recorded: effective as a painkiller | did not cause the same side-effects; also recorded: adverse effect on the medication they were taking following a heart attack
CC(=O)Nc1ccc(O)cc1 [Panamax] | not effective to relieve their pain | –
